# Laboratory results taken from patent US20260000781A1, “FC CONJUGATES INCLUDING AN INHIBITOR OF CD73 AND USES THEREOF” (Cidara Therapeutics, Inc., priority 2022, published 2026).
# Where two headings read alike, the source gives them in different places.
# System: human PBMCs inhibited by AMP
# Test: PBMC activation assay by flow cytometry (rescue of AMP suppressed cells)
# Format: cell-based
# Procedure: (§1) Human PBMCs (StemCell Technologies cat no. 70025) prepared in ImmunoCult™—XF T cell Expansion medium (StemCell Technologies cat no. 10981) were seeded at 1×10^5 cells per well (100 μL of 1×10^6 cells/mL) in the presence or absence of T cell activator anti-CD3/CD28/CD2 (StemCell Technologies cat no. 10970) in 96 well round bottom plates (Corning cat no. 3788). Ten-fold serial dilutions of each test article was prepared, resulting in final concentrations ranging from 0.1 nM-10,000 nM. 50 μL of test article was added to the cells, followed by 50 μL of adenosine 5′ monophosphate (AMP; MilliporeSigma cat no. A1752) for a final concentration of 30 μM. Plates were incubated at 37° C. with 5% CO2 for 72 h. After 72 h the cells were centrifuged for 5 min at 300×g at 4° C. then washed twice with cell staining buffer (BioLegend cat no. 420201). Cells were incubated with Fc block (Unlabeled, Clone: 3070; BD Biosciences cat no. 5642220) for 10 min at 4° C. Cells were stained with anti-human CD25 antibody, clone 2A3, PE (StemCell Technologies cat no. 60153PE) for 20 min at 4° C. protected from light. Cells were washed twice with cell staining buffer and resuspended in 200 μL of cell staining buffer. Samples were acquired using a Cytek Northern Lights flow cytometry system. CD25^+ by flow cytometry was used as the readout to measure PBMC activation after AMP inhibition. Samples were analyzed using FlowJo version 10. Percent rescue […] was plotted using GraphPad Prism Version 6 and EC50 values were generated using nonlinear regression analysis for total PBMCs or CD8^+ T cells using CD25^+ as read-out or granzyme B^+.
# as §1, with “test article were prepared, resulting” for “test article was prepared, resulting”, “nonlinear regression analysis.” for “nonlinear regression analysis for total PBMCs or CD8^+ T cells using CD25^+ as read-out or granzyme B^+.”
# Human PBMCs (StemCell Technologies cat no. 70025) prepared in ImmunoCult™—XF T cell Expansion medium (StemCell Technologies cat no. 10981) were seeded at 1×10^5 cells per well (100 μL of 1×10^6 cells/mL) in the presence or absence of T cell activator anti-CD3/CD28/CD2 (StemCell Technologies cat no. 10970) in 96 well round bottom plates (Corning cat no. 3788). Ten-fold serial dilutions of each test article was prepared in medium (ranging from 4,000 nM-0.4 nM), resulting in final concentrations ranging from 1,000 nM-0.1 nM. 50 μL of test article was added to the cells, followed by 50 μL of adenosine 5′ monophosphate (AMP; MilliporeSigma cat no. A1752) for a final concentration of 30 μM. […]
# [1] = read-out: 30 μM AMP EC50, CD25+ as a read-out, total PBMCs, 72 h
# [2] = 30 μM AMP, 72 h, read-out: CD8+CD25+ EC50
# [3] = 30 μM AMP, 72 h, read-out: CD8+granzyme B+ EC50
smiles,measurement,setting,value
C[C@H](Nc1cc(Cl)nc2c1cnn2[C@@H]1O[C@H](COP(=O)(O)CP(=O)(O)O)[C@@H](O)[C@H]1O)c1ccccc1F [AB680],EC50,"Homo sapiens, PBMC, read-out: 30 μM AMP EC50 [nM], CD25+ as a read-out, total PBMCs, 72 h",9 nM
same,EC50,"Homo sapiens, PBMC, read-out: EC50 [nM] (median, n = 3) CD4+CD25+, 30 μM AMP, 72 h",10 nM
same,EC50,"Homo sapiens, PBMC, read-out: EC50 [nM] (median, n = 3) CD8+CD25+, 30 μM AMP, 72 h",10 nM
same,EC50,"Homo sapiens, PBMC, read-out: EC50 [nM] (median, n = 3) CD8+Granzyme B+, 30 μM AMP, 72 h",47 nM
same,EC50,"Homo sapiens, PBMC, 30 μM AMP, 72 h, CD4+CD25+, CD8+CD25+, CD8+Granzyme B+, read-out: EC50 values (range over the read-outs)",10 to 54 nM
same,EC50,"Homo sapiens, PBMC, 30 μM AMP, 72 h, read-out: CD8+CD25+ EC50",8.1 nM
same,EC50,"Homo sapiens, PBMC, 30 μM AMP, 72 h, read-out: CD8+granzyme B+ EC50",1.4 nM
COC[C@](CO)(OC[C@H]1O[C@@H](n2ncc3c(NC4CCCC4)nc(Cl)nc32)[C@H](O)[C@@H]1O)P(=O)(O)O [OP5244],EC50,[1],8 nM
same,EC50,"read-out: 30 μM AMP EC50, batches of Conjugate 172c, CD25+ as a read-out, 72 h (Table 13)",17 nM
COC[C@](CO)(OC[C@H]1O[C@@H](n2ncc3c(NC4CCCC4)nc(Cl)nc32)[C@H](O)[C@@H]1O)P(=O)(O)O [OP-5244],EC50,[2],5.9 nM
same,EC50,[3],1.4 nM
same,EC50,"read-out: EC50 [nM] (median, n = 3) CD4+CD25+, 30 μM AMP, 72 h",7 nM
same,EC50,"read-out: EC50 [nM] (median, n = 3) CD8+CD25+, 30 μM AMP, 72 h",7 nM
same,EC50,"read-out: EC50 [nM] (median, n = 3) CD8+Granzyme B+, 30 μM AMP, 72 h",8 nM
O=P(O)(O)COC[C@H]1O[C@@H](n2ncc3c(N4CC5(CCc6ccccc65)C4)nc(Cl)nc32)[C@H](O)[C@@H]1O [SHR170008],EC50,[2],598 nM
same,EC50,[3],212 nM
same,EC50,[1],374 nM
